# Like-named read-outs stand apart in the source and are kept apart here.
# How the values were obtained:
# [1] = longitudinal relaxivity rl in human blood plasma at 37° C.; format: physicochemical; details: for longitudinal relaxivity rl calculated for a field of 3 T: calculated from the measurements at lower fields
# Procedure: Compound 23 was dissolved in human blood plasma and the longitudinal relaxivity rl was measured at 37° C. at the following fields:
# Compound 13 was dissolved in human blood plasma and the longitudinal relaxivity rl was measured at 37° C. at the following fields:
# Compound 36 was dissolved in human blood plasma and the longitudinal relaxivity rl was measured at 37° C. at the following fields:
# Compound 40 was dissolved in human blood plasma and the longitudinal relaxivity rl was measured at 37° C. at the following fields:
# Compound 43 was dissolved in human blood plasma and the longitudinal relaxivity rl was measured at 37° C. at the following fields:
# Compound 46 was dissolved in human blood plasma and the longitudinal relaxivity rl was measured at 37° C. at the following fields: […]
# [2] = 3 T, human blood plasma, 37° C., published data; cited from earlier work
Compound,longitudinal relaxivity rl ([1]; 0.235 T),longitudinal relaxivity rl ([1]; 0.47 T),longitudinal relaxivity rl ([1]; 1.41 T),longitudinal relaxivity rl calculated for a field of 3 T ([1]; 3 T),further results
"gadolinium derivative of 2,4,6-trimethylbenzene-1,3,5-tris-[N-methyl-((2-DO3A-propyl)-3-(N′-methyl-amidophenyl))-carboxamide)] [Compound 43]",12 mM^1s^1,10.6 mM^1s^1,9 mM^1s^1,8.2 mM^1s^1,–
"Cc1c(C(=O)N(C)c2cccc(NC(=O)CN3CCN4CCN5CCN(CC3)CC(=O)[O][Gd]([O]C(=O)C4)[O]C(=O)C5)c2)c(C)c(C(=O)N(C)c2cccc(NC(=O)CN3CCN4CCN5CCN(CC3)CC(=O)[O][Gd]([O]C(=O)C4)[O]C(=O)C5)c2)c(C)c1C(=O)N(C)c1cccc(NC(=O)CN2CCN3CCN4CCN(CC2)CC(=O)[O][Gd]([O]C(=O)C3)[O]C(=O)C4)c1 [Compound 36, gadolinium derivative of 2,4,6-trimethylbenzene-1,3,5-tris-[(DO3A-(3-acetamidophenyl))-N-methyl-carboxamide]]",9.3 mM^1s^1,8.8 mM^1s^1,7.3 mM^1s^1,8.5 mM^1s^1,–
CNC[C@H](O)[C@@H](O)[C@H](O)[C@H](O)CO.CNC[C@H](O)[C@@H](O)[C@H](O)[C@H](O)CO.O=C([O-])CN(CCN(CC(=O)[O-])CC(=O)O)CCN(CC(=O)O)C(COCc1ccccc1)C(=O)[O-].[Gd+3] (stereo not shown) [Multihance],–,–,–,–,longitudinal relaxivity rl [2]: 6.3 mM^1s^1
"gadolinium derivative of 1,3,5-tris-(N-(DO3A-acetamido)-N-methyl-4-amino-2-methyl-phenyl)-[1,3,5]triazinane-2,4,6-trione [Compound 23]",–,–,–,–,longitudinal relaxivity rl ([1]; 0.25 T): 10.7 mM⁻¹ s⁻¹; longitudinal relaxivity rl ([1]; 1.5 T): 11.6 mM^1s^1; longitudinal relaxivity rl ([1]; 2.35 T): 10.1 mM^1s^1; longitudinal relaxivity rl ([1]; 3 T): 9.9 mM^1s^1
Cc1c(C(=O)N(C)c2cccc(NC(=O)C(C)N3CCN4CCN5CCN(CC3)CC(=O)[O][Gd]([O]C(=O)C5)[O]C(=O)C4)c2)c(C)c(C(=O)N(C)c2cccc(NC(=O)C(C)N3CCN4CCN5CCN(CC3)CC(=O)[O][Gd]([O]C(=O)C5)[O]C(=O)C4)c2)c(C)c1C(=O)N(C)c1cccc(NC(=O)C(C)N2CCN3CCN4CCN(CC2)CC(=O)[O][Gd]([O]C(=O)C4)[O]C(=O)C3)c1 (stereo not shown) [Compound 40],10.1 mM^1s^1,8.6 mM^1s^1,9.1 mM^1s^1,9 mM^1s^1,–
Cc1c(C(=O)N(C)c2cccc(N(C)C(=O)C(C)N3CCN4CCN5CCN(CC3)CC(=O)[O][Gd]([O]C(=O)C5)[O]C(=O)C4)c2)c(C)c(C(=O)N(C)c2cccc(N(C)C(=O)C(C)N3CCN4CCN5CCN(CC3)CC(=O)[O][Gd]([O]C(=O)C5)[O]C(=O)C4)c2)c(C)c1C(=O)N(C)c1cccc(N(C)C(=O)C(C)N2CCN3CCN4CCN(CC2)CC(=O)[O][Gd]([O]C(=O)C4)[O]C(=O)C3)c1 (stereo not shown) [Compound 46],10.9 mM^1s^1,10.1 mM^1s^1,8.9 mM^1s^1,9 mM^1s^1,–
CNC[C@H](O)[C@@H](O)[C@H](O)[C@H](O)CO.CNC[C@H](O)[C@@H](O)[C@H](O)[C@H](O)CO.O=C([O-])CN(CCN(CC(=O)[O-])CC(=O)O)CCN(CC(=O)[O-])CC(=O)O.[Gd+3] [Magnevist],–,–,–,–,longitudinal relaxivity rl [2]: 3.3 mM^1s^1
"gadolinium derivative of benzene-1,3,5-tris-[((DO3A-acetamido)-3-(N′-methylamido-phenyl))-carboxamide)] [Compound 13]",–,–,–,9.0 mM^1s^1,longitudinal relaxivity rl ([1]; 1.5 T): 9.2 mM^1s^1; longitudinal relaxivity rl ([1]; 2.35 T): 9.5 mM^1s^1

# From US20090238768A1, “MULTIMERIC MAGNETIC RESONANCE CONTRAST AGENTS” (priority 2005, published 2009)
